Here are results for seven molecules from PubChem BioAssay (NCI).

Where “and” joins values, the source holds several entries; their conditions need not be identical. Equal values may be shown once.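 48-hour exposure; five concentrations; linearly interpolated endpoints. GI50 marks 50% less growth. TGI: concentration producing complete growth inhibition.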 Some results are limits rather than exact numbers.

Test systems include SR leukemia; SNB-19 CNS; SK-MEL-5 melanoma; MALME-3M melanoma; TK-10 renal; HOP-92 NSCLC; SN12C renal; HOP-62 NSCLC; MDA-MB-231 breast; SF-295 CNS.
Holding throughout (experiment): inhibition of tumour cell growth, NCI panel, 48 h

In the case of `Oc1ccccc1C=Nc1nc(OCc2ccccc2)nc2[nH]ncc12`, the GI50 in the assay with SR leukemia was 13.1 µM; in the assay with SNB-19 CNS, 37.7 µM; in the assay on SK-MEL-5 melanoma, 15.1 µM; with MALME-3M melanoma, 16.6 µM; in the assay with TK-10 renal, 10.6 µM; in the assay on HOP-92 NSCLC, 11.7 µM. In addition, the GI50 with SN12C renal was 17.2 µM; with HOP-62 NSCLC, 26.2 µM; in the assay on MDA-MB-231 breast it was 15 µM; in the assay on SF-295 CNS, 19.9 µM. The TGI was 39.5 µM in the assay with SR leukemia; above 100 µM in the assay with SNB-19 CNS; 29.7 µM with SK-MEL-5 melanoma; 38.2 µM in the assay with MALME-3M melanoma; 32.8 µM in the assay on TK-10 renal; 43.7 µM in the assay with HOP-92 NSCLC. Besides, the TGI with SN12C renal was found to be 40.7 µM; with HOP-62 NSCLC, 84.8 µM; in the assay on MDA-MB-231 breast, 37.3 µM; in the assay on SF-295 CNS, 39.3 µM.
As to `COc1ccc(/C=C\c2cc(OC)c(OC)c(OC)c2)c(NS(=O)(=O)c2ccc(C(C)(C)C)cc2)c1O`, the GI50 in the assay with SR leukemia is 0.0453 µM; in the assay on SNB-19 CNS it was 0.56 µM; with SK-MEL-5 melanoma, 0.345 µM; in the assay with MALME-3M melanoma, 12.5 µM; in the assay with TK-10 renal it was 1.3 µM; with HOP-92 NSCLC, 0.189 µM. Also, the GI50 in the assay on SN12C renal was 0.618 µM; in the assay on HOP-62 NSCLC it was 10.1 µM; in the assay with MDA-MB-231 breast it was 0.358 µM; in the assay with SF-295 CNS, 1.37 µM. The TGI is above 100 µM with SR leukemia; 26.6 µM with SNB-19 CNS; 1.83 µM with SK-MEL-5 melanoma; 30.4 µM in the assay on MALME-3M melanoma; 37.1 µM in the assay with TK-10 renal; 5.92 µM in the assay on HOP-92 NSCLC. In addition, the TGI in the assay with SN12C renal is 21.4 µM; with HOP-62 NSCLC, 70.3 µM; in the assay on MDA-MB-231 breast, 16.9 µM; in the assay with SF-295 CNS it was 15 µM.
Take `N/C(=N\C(N)=N\c1nc2ccccc2s1)c1cnccn1`: the GI50 in the assay with SR leukemia is 4.32 µM; in the assay on SNB-19 CNS, 3.57 µM; in the assay with SK-MEL-5 melanoma, 2.29 µM; with MALME-3M melanoma it was 2.27 µM; in the assay with TK-10 renal, 2.53 µM; in the assay on HOP-92 NSCLC, 3.05 µM. In addition, the GI50 in the assay with SN12C renal is 4.18 µM; in the assay with HOP-62 NSCLC it was 2.92 µM; in the assay with MDA-MB-231 breast, 3.91 µM; in the assay with SF-295 CNS, 3.19 µM. The TGI with SR leukemia was above 100 µM; with SNB-19 CNS, 41.6 µM; in the assay with SK-MEL-5 melanoma, 5.89 µM; in the assay on MALME-3M melanoma, 5.66 µM; with TK-10 renal, 7.96 µM; in the assay with HOP-92 NSCLC it was 16.1 µM. For the same molecule, the TGI in the assay with SN12C renal is above 100 µM; with HOP-62 NSCLC, 16.1 µM; in the assay on MDA-MB-231 breast, above 100 µM; in the assay on SF-295 CNS it was 22.6 µM.
On to `CN(C)c1ccc(N=C2C=CC(=C(C#N)C#N)c3ccccc32)cc1`, for which the TGI came to 48.1 µM with SR leukemia; 12.7 µM in the assay with SNB-19 CNS; 0.713 µM in the assay on SK-MEL-5 melanoma; 17.1 µM with MALME-3M melanoma; 16.4 µM in the assay with TK-10 renal; 1.06 µM with HOP-92 NSCLC. Also, the TGI with SN12C renal amounted to 15.9 µM; with HOP-62 NSCLC it was 15.3 µM; in the assay on MDA-MB-231 breast it was 2.66 µM; with SF-295 CNS it was 14.9 µM.
As for `Nc1nc(=S)c2[nH]cnc2[nH]1`, the GI50 with SR leukemia is 0.0786 µM and 0.588 µM; in the assay with SNB-19 CNS, 39.2 µM and 89 µM and 48.6 µM; in the assay on SK-MEL-5 melanoma, 1.59 µM and 2.68 µM and 6.68 µM; with MALME-3M melanoma it was 0.583 µM and 3.13 µM and 1.43 µM; in the assay with TK-10 renal, 0.375 µM and 0.542 µM and 1.26 µM; with HOP-62 NSCLC it was 0.472 µM. Further, the GI50 in the assay on MDA-MB-231 breast is 0.323 µM and 1.36 µM; in the assay on SF-295 CNS, 0.209 µM and 1.24 µM. Besides, the TGI was > 24.7 µM and 15.7 µM in the assay on SR leukemia; > 100 µM and 241 µM and > 250 µM with SNB-19 CNS; 10.9 µM and 24.7 µM and 29.3 µM in the assay on MALME-3M melanoma; 41.3 µM and 67.7 µM and 9.02 µM in the assay on TK-10 renal; 4.44 µM and 26.8 µM and 32.4 µM with HOP-92 NSCLC; > 100 µM and 171 µM and > 250 µM in the assay on SN12C renal. Besides, the TGI was > 31.8 µM and 29.6 µM and 94.9 µM in the assay on HOP-62 NSCLC; > 100 µM and 150 µM and > 250 µM in the assay with MDA-MB-231 breast.
For the molecule `N#CCCN(CCC#N)c1ccc(C=Nc2ccc(F)cc2)cc1`, the TGI with SR leukemia is above 100 µM; with SNB-19 CNS it was above 100 µM; in the assay with SK-MEL-5 melanoma, above 100 µM; in the assay on MALME-3M melanoma, above 100 µM; in the assay with TK-10 renal, above 92.6 µM; in the assay with HOP-92 NSCLC it was above 100 µM. Further, the TGI in the assay with SN12C renal, in the assay with HOP-62 NSCLC, in the assay with MDA-MB-231 breast and in the assay with SF-295 CNS was above 100 µM each time.
As for `Cc1nc2c(Br)cc(Br)cc2c(=O)n1-c1ccccc1NC1OCC(O)C(O)C1O` (stereo unspecified), the GI50 is 13.2 µM and 6 µM in the assay on SR leukemia; 36.9 µM and 13.4 µM with SK-MEL-5 melanoma; 46.8 µM and 21.9 µM in the assay with SN12C renal; > 100 µM and 10.3 µM with HOP-62 NSCLC; 43.1 µM and 14 µM in the assay with SF-295 CNS. The TGI was 41 µM and 13.6 µM in the assay with SR leukemia; above 100 µM with SNB-19 CNS; > 100 µM and 31.3 µM with SK-MEL-5 melanoma; above 100 µM with MALME-3M melanoma; above 100 µM with TK-10 renal; 82.1 µM and > 100 µM in the assay with HOP-92 NSCLC. The TGI in the assay on SN12C renal is above 100 µM; with HOP-62 NSCLC it was > 100 µM and 35.7 µM; in the assay with MDA-MB-231 breast, above 100 µM; in the assay on SF-295 CNS it was > 100 µM and 65.3 µM.
